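Values below derive from 48-hour exposures of cells grown in 96-well plates, with endpoints linearly interpolated between the two concentrations bracketing the appropriate inhibition level. GI50 is the concentration that inhibits growth by half.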 The source made the active and inactive calls. No stated cut-off is given here; in the data, active = GI50 up to about 1.1 µM and inactive = higher.
How the values were obtained:
Test in all cases: NCI tumour cell line growth inhibition, 48 h
SN12C = system: SN12C
M14 = system: M14
NCI-H460 = system: NCI-H460
SK-MEL-28 = system: SK-MEL-28
OVCAR-8 = system: OVCAR-8
LOX IMVI = system: LOX IMVI
ACHN = system: ACHN
A549 = system: A549
NCI-H522 = system: NCI-H522
UACC-62 = system: UACC-62
IGROV-1 = system: IGROV-1
CAKI-1 = system: CAKI-1
A498 = system: A498
HOP-92 = system: HOP-92
UACC-257 = system: UACC-257
EKVX = system: EKVX

Measured: GI50

COc1nc(NC2OC(COC(C)=O)C(OC(C)=O)C(OC(C)=O)C2OC(C)=O)c(-c2csc(N)n2)c(=O)n1C (centres undefined)
inactive: SN12C > 100 µM | M14 78.7 µM | NCI-H460 73.1 µM | SK-MEL-28 55.7 µM | OVCAR-8 31.8 µM | LOX IMVI > 100 µM | ACHN 38.4 µM | A549 55 µM | NCI-H522 46.5 µM | UACC-62 33.7 µM | IGROV-1 > 100 µM | CAKI-1 32.3 µM | A498 > 100 µM | HOP-92 28.4 µM | UACC-257 58.3 µM

Cc1ccc(NC(=O)CCC(CC(=O)C(C)(C)C)=NNC(=O)C(=O)NN)cc1C
inactive: SN12C > 100 µM | M14 > 100 µM | EKVX > 100 µM | NCI-H460 > 100 µM | SK-MEL-28 > 100 µM | OVCAR-8 > 100 µM | LOX IMVI > 100 µM | ACHN > 100 µM | A549 > 100 µM | NCI-H522 > 100 µM | UACC-62 > 100 µM | IGROV-1 > 100 µM | CAKI-1 > 100 µM | UACC-257 > 100 µM

COc1ccc(/C=C/C(=O)c2sc(N)nc2C)cc1
inactive: SN12C > 100 µM | EKVX > 100 µM | NCI-H460 > 100 µM | SK-MEL-28 > 100 µM | OVCAR-8 > 100 µM | LOX IMVI > 100 µM | A549 > 100 µM | NCI-H522 > 100 µM | UACC-62 > 100 µM | IGROV-1 > 100 µM | CAKI-1 > 100 µM | A498 > 100 µM | HOP-92 > 100 µM | UACC-257 > 100 µM

COC(=O)C(C(=O)C(=O)Nc1nc2ccc([N+](=O)[O-])cc2s1)c1nc2ccc(Cl)cc2nc1O (centres undefined)
inactive: SN12C > 100 µM | M14 > 100 µM | EKVX > 100 µM | NCI-H460 > 100 µM | SK-MEL-28 > 100 µM | OVCAR-8 > 100 µM | LOX IMVI > 100 µM | ACHN > 100 µM | A549 > 100 µM | NCI-H522 > 100 µM | UACC-62 > 100 µM | IGROV-1 > 100 µM | CAKI-1 71.3 µM | A498 21.2 µM | UACC-257 > 100 µM

CCN(CC)CCn1c2ccccc2c(=O)c2c(OC)ccc(OC)c21
inactive: SN12C 52.4 µM | M14 > 100 µM | EKVX > 100 µM | NCI-H460 41.9 µM | OVCAR-8 48.4 µM | LOX IMVI 36.5 µM | ACHN 47.9 µM | A549 63.7 µM | NCI-H522 > 96.4 µM | UACC-62 > 10 µM | IGROV-1 > 10 µM | CAKI-1 68.5 µM | A498 97.5 µM | HOP-92 > 94.2 µM | UACC-257 45.8 µM

O=C1c2ccccc2C(=O)c2nc3ccc(Cl)cc3cc21
inactive: SN12C > 100 µM | M14 > 100 µM | EKVX > 100 µM | NCI-H460 > 100 µM | SK-MEL-28 > 100 µM | OVCAR-8 > 100 µM | LOX IMVI > 100 µM | ACHN > 100 µM | A549 > 100 µM | NCI-H522 > 100 µM | UACC-62 > 100 µM | IGROV-1 > 100 µM | CAKI-1 > 100 µM | HOP-92 > 100 µM

COc1cc2c(cc1OC)C(=O)N1CCCC1C(=O)S2 (centres undefined)
inactive: SN12C > 100 µM | M14 > 100 µM | EKVX > 100 µM | NCI-H460 > 100 µM | SK-MEL-28 > 100 µM | OVCAR-8 > 100 µM | LOX IMVI > 100 µM | ACHN > 100 µM | A549 > 100 µM | NCI-H522 > 100 µM | UACC-62 35.6 µM | IGROV-1 19.9 µM | HOP-92 > 100 µM | UACC-257 > 100 µM

O=C(/C=C/c1ccc(Cl)c(Cl)c1)c1cccc2ccccc12
inactive: SN12C 16.9 µM | M14 17.1 µM | EKVX 18.4 µM | NCI-H460 5.81 µM | SK-MEL-28 17.8 µM | OVCAR-8 2.16 µM | ACHN 16.4 µM | A549 15.7 µM | NCI-H522 2.97 µM | UACC-62 12.9 µM | IGROV-1 11.7 µM | CAKI-1 7.36 µM | A498 22.5 µM | HOP-92 16.8 µM | UACC-257 15.9 µM

CCC(CC)n1c(C)nc2c1C(=O)c1ccccc1C2=O
inactive: SN12C 46.3 µM | M14 63.1 µM | EKVX 70.5 µM | NCI-H460 20.7 µM | SK-MEL-28 49.3 µM | OVCAR-8 40.5 µM | LOX IMVI 19.5 µM | ACHN 41.4 µM | A549 35.3 µM | NCI-H522 48.1 µM | UACC-62 10.3 µM | IGROV-1 71.9 µM | HOP-92 22.5 µM | UACC-257 24 µM

CCCCCCCCCCCCn1[nH]c(C)c(C(=S)SCCCCCCCC)c1=O
inactive: SN12C 86.3 µM | M14 56.1 µM | EKVX 43.9 µM | NCI-H460 61.4 µM | SK-MEL-28 > 100 µM | OVCAR-8 30.7 µM | LOX IMVI 48.8 µM | ACHN 37.6 µM | A549 69.5 µM | NCI-H522 31.9 µM | UACC-62 21.1 µM | IGROV-1 > 91.6 µM | CAKI-1 32.1 µM | A498 > 100 µM | HOP-92 > 100 µM | UACC-257 41.8 µM

O=C(N/C(=C\c1ccc(Oc2ccc(Cl)c(Cl)c2)cc1)c1nc2ccccc2[nH]1)c1ccccc1
inactive: SN12C 18.4 µM | M14 19.5 µM | EKVX 22 µM | SK-MEL-28 18.4 µM | OVCAR-8 14.6 µM | ACHN 19.7 µM | A549 17.9 µM | NCI-H522 15.9 µM | UACC-62 13.7 µM | IGROV-1 > 10 µM | CAKI-1 21 µM | HOP-92 10.4 µM

Cc1ccc(/N=N/c2ccc(N(CCC#N)CCC#N)cc2C)c(Br)c1
inactive: SN12C 19.4 µM | M14 20.5 µM | EKVX 41 µM | SK-MEL-28 51.3 µM | OVCAR-8 49.3 µM | LOX IMVI 3.33 µM | ACHN 15 µM | A549 21.5 µM | NCI-H522 18.5 µM | UACC-62 13.5 µM | IGROV-1 37.4 µM | CAKI-1 2.38 µM | A498 51.9 µM | UACC-257 26 µM

ClC(/N=N/c1ccccc1)=N/Nc1ccccc1
inactive: SN12C > 100 µM | EKVX 96.8 µM | NCI-H460 > 100 µM | SK-MEL-28 > 100 µM | OVCAR-8 > 100 µM | LOX IMVI 58.5 µM | ACHN 34.8 µM | A549 > 100 µM | NCI-H522 61.9 µM | IGROV-1 > 100 µM | CAKI-1 33.6 µM | A498 > 100 µM | HOP-92 > 100 µM | UACC-257 > 100 µM

O=C1CCC(=O)c2c1c(O)c1ccncc1c2O
inactive: SN12C 17.5 µM | M14 15.6 µM | EKVX 27.8 µM | NCI-H460 15.1 µM | SK-MEL-28 20.5 µM | OVCAR-8 10 µM | LOX IMVI 13.8 µM | ACHN 15.3 µM | A549 20.4 µM | NCI-H522 12 µM | UACC-62 6.4 µM | IGROV-1 15 µM | CAKI-1 23.9 µM | HOP-92 22.8 µM | UACC-257 7.5 µM

NC(=O)N/N=C(\CC1OC(=O)c2ccccc21)c1ccco1 (centres undefined)
inactive: M14 > 100 µM | EKVX > 100 µM | NCI-H460 > 100 µM | SK-MEL-28 > 100 µM | LOX IMVI > 100 µM | ACHN > 100 µM | A549 > 100 µM | NCI-H522 > 100 µM | UACC-62 > 100 µM | IGROV-1 > 100 µM | CAKI-1 > 100 µM | A498 > 100 µM | HOP-92 > 100 µM | UACC-257 > 100 µM

COC(=O)C1=NC(=S)NC(c2ccccc2)C1c1nc2ccccc2o1 (centres undefined)
inactive: SN12C > 50 µM | M14 > 50 µM | EKVX > 50 µM | NCI-H460 > 50 µM | OVCAR-8 > 50 µM | LOX IMVI > 50 µM | ACHN > 50 µM | A549 > 50 µM | NCI-H522 > 50 µM | UACC-62 > 50 µM | IGROV-1 > 50 µM | CAKI-1 > 50 µM | A498 > 50 µM | HOP-92 > 50 µM | UACC-257 > 50 µM

N/N=C(\Cc1ccccc1)NN=C(N)N
inactive: SN12C > 100 µM | M14 > 100 µM | EKVX > 100 µM | NCI-H460 > 100 µM | SK-MEL-28 > 100 µM | OVCAR-8 > 100 µM | LOX IMVI > 100 µM | ACHN 53.7 µM | A549 > 100 µM | NCI-H522 32.1 µM | UACC-62 > 100 µM | IGROV-1 > 100 µM | CAKI-1 > 100 µM | A498 > 100 µM | HOP-92 > 100 µM | UACC-257 > 100 µM

CN(C(=O)C12C3C4C1C1C2C3C41C(N)=O)C(C)(C)C (centres undefined)
inactive: SN12C > 100 µM | M14 > 100 µM | EKVX > 100 µM | NCI-H460 > 100 µM | SK-MEL-28 > 100 µM | OVCAR-8 > 100 µM | ACHN > 100 µM | A549 > 100 µM | NCI-H522 > 100 µM | UACC-62 > 100 µM | IGROV-1 > 100 µM | CAKI-1 > 100 µM | A498 > 100 µM | HOP-92 > 100 µM

O=C1OC(=O)c2c1c(-c1ccccc1)cn2-c1ccc(Cl)cc1
inactive: SN12C > 100 µM | M14 8.28 µM | EKVX 41.1 µM | NCI-H460 > 100 µM | SK-MEL-28 > 100 µM | OVCAR-8 > 100 µM | LOX IMVI 48.1 µM | ACHN 37.2 µM | A549 83 µM | NCI-H522 67.3 µM | UACC-62 1.64 µM | IGROV-1 24.7 µM | HOP-92 > 100 µM | UACC-257 > 100 µM
